Experiment [1] has as its system testicular steroidogensis. In words: Inhibitory activity against testicular steroidogenesis in healthy men, single intranasal dose. Type of experiment: in vivo. Conditions: for steroid/testosterone level on the fourth day after administration: fourth day (until 6th day). As for the experimental part:
The inhibitory activity of [D Ser (tbu)^6 of des Gly NH2^10 ] LH-RH ethylamide (described in German application Ser. No. 2,438,350) against testicular steroidogensis in men in good health was determined on men in good health aged 30 to 40 years. The said product was administered intranasally at a dose of 500 μg in a few drops of distilled water at 8 A.M. on the third day of the test. For 2 days prior to the treatment and for 6 days after the treatment, samples of blood were taken daily at 8 A.M., 3 P.M. and 10 P.M. On the day of administration of the LH-RH agonist, blood samples were taken at 11 A.M. and 6 P.M.
The seric concentrations of LH and FSH were measured by radioimmuno-logic dosages with double antibodies and the antibodies for measuring LH and FSH were furnished by the National Pituitary Agency of N.I.H. in Bethesda, Md. The seric concentrations of steroids was measured by radioimmuno-logic dosages in which one ml of serum was extracted with ether and the steroids were separated on a LH-20 column before measuring with radioimmuno-logic dosages. The radioimmuno-logic dosage results were determined by a program derived from model II of Rodbard et al [Second Karolinska Symposium on Research Methods in Reproductive Endrocrinology, Diczfalusky Editor, Copenhague (1970), p. 79-103]. The statistical significance was determined by the "multiple level test" of Duncan-Kramer [Kramer, Biometrics, Vol 12 (1956), p. 307]. The results are shown in the graphs on sheet 1 of the Figures filed herewith.

In experiment [2] the test system is testicular steriodogenosis. In words: Inhibitory activity on testicular steroidogenesis in a patient with prostate cancer, intranasal twice a day. The experiment is classed as in vivo, human. The note with it: 500 μg intranasally twice a day. The text has this:
The inhibitory activity of [D Ser (tbu)^6 des Gly NH2^10 ] […] The results are reported in the graphs of sheet 2 of the Figures.

In experiment [3] the test system is ovarian steroidogenosis. In words: Inhibitory activity on ovarian steroidogenesis in women, intranasal. Type of experiment: in vivo. Conditions: for reduction of seric levels of progesterone compared to the controls: typical subject (sheet 3). How it is done: The inhibitory activity of [D Ser (tbu)^6 des Gly NH2^10 ] LH-RH ethylamide on ovarian steroidogenosis in women was determined on 6 women aged 26 to 35 years with normal and regular menstrual cycles and without prior endocrinal or gynecological problems. […] Two drops of a solution containing 500 μg of [D Ser (tbu)^6 des Gly NH2^10 ] LH-RH ethylamide were deposited on each nostril at 8 A.M. and 5 P.M. of a day between the 4th and 9th day after the peak of LH-day 0. Daily blood samples were taken between 4 and 6 P.M. to measure seric levels of LH, FSH, progesterone and estradiol which were determined by radioimmuno-logictests with double antibodies. The antibodies to measure LH and FSH were furnished by the National Pituitory Agency of N.I.H. of Bethesda, Md.
Estradiol and progesterone were measured with highly specific antibodies developed against 7-(O-carboxymethyl)-oxime of estradiol and 12-(O-carboxymethyl)-oxime of progesterone, respectively [3H]17β-estradiol and ^125 I-progesterone-12-[O-carboxymethyl)-oxime] used as tracers. The serum was extracted with benzene and the steroids were separated with a LH-20 column before the determination. The radioimmunological results were exploited by the program derived from model II of Rodbard and Lewald as in Example 1 and the statistical significance was measured by the multiple level test of Ducan-Kramer of Example 1. The results are shown in the graphs of sheets 3 to 5 of the Figures.

The mark [4] stands for this setting: human, single intranasal dose 500 μg.
The mark [5] stands for this setting: men, intranasal 500 μg, 3rd day following administration.

Consider `CCNC(=O)[C@@H]1CCCN1C(=O)[C@H](CCCNC(=N)N)NC(=O)[C@H](CC(C)C)NC(=O)[C@@H](COC(C)(C)C)NC(=O)[C@H](Cc1ccc(O)cc1)NC(=O)[C@H](CO)NC(=O)[C@H](Cc1c[nH]c2ccccc12)NC(=O)[C@H](Cc1c[nH]cn1)NC(=O)[C@@H]1CCC(=O)N1` [[D Ser (tbu)^6 des Gly NH2^10] LH-RH ethylamide], for which, in experiment [1] (setting [4]), the “duration of the drop of seric levels of testicular steroids (testosterone and its precursors)” value is recorded as 3 days. For the same compound, the “diminution of the level of testosterone” value in experiment [1] (human, single intranasal dose 500 μg, 3rd day following administration) is reported as 50%. Also, the “steroid/testosterone level on the fourth day after administration” value in experiment [1] (setting [4]) is “returned to normal”; in experiment [1] (human, single intranasal dose 500 μg, listed as the peptide) it was “return to normal levels”. The “LH and FSH plasmatic levels” value in experiment [1] (men, intranasal 500 μg) is “increase”. Further, the “concentration of 17-OH-progesterone relative to initial control values” in experiment [1] (setting [5]) is listed as 40%. Further, in experiment [1] (setting [5]), the “concentration of testosterone relative to initial control values” came out at 50%. Also, in experiment [1] (men, intranasal 500 μg, day of treatment), the “seric concentration of pregnenolone, 17-OH-pregnenolone, progesterone, 17-OH-progesterone, Δ5-androstene-3β,17β-diol and testosterone” value was “increased”. Besides, in experiment [2], the “level of androgenic steroids” value was “diminution”. Further, in experiment [2] (two weeks of treatment), the level of testosterone entry is “stabilized at a very low level”. Further, the “level of seric progesterone, course” value is on record as “return to normal” in experiment [3] (2 cycles of post-treatment) and “accelerated diminution” in experiment [3] (2 cycles of treatment). In addition, in experiment [3] (12 cycles of treatment (sheet 5), scale 13 to 127%), the “reduction of the level of progesterone compared to the controls” value was 46%. For the same compound, the figures for the “progesterone level as % of pretreatment cycles (base 100%)” value in experiment [3] (cycles of post-treatment (12 cycles)) and in experiment [3] (cycles of treatment (12 cycles)) were 99% and 46%, respectively. In addition, the “reduction of seric levels of progesterone compared to the controls” value is reported as 13% in experiment [3] (first cycle of treatment) and 34% in experiment [3] (second cycle of treatment).
